According to patent US11459586B2, “Methods for increasing efficiency of nuclease-mediated gene editing in stem cells” (President and Fellows of Harvard College, priority 2016, dated 2022):
Peptide text beside a SMILES is read from it. * marks the point of attachment. Cbz = O=C(OCc1ccccc1)*; CH2F = FC*

Legend:
hiPSC = assay: toxicity of chemical inhibitors added to hiPSC culture after nucleofection
Procedure: (§1) Plasmids were purified using the plasmid DNA purification kit sold under the trademark Qiagen ENDOFREE® Plasmid Maxi kit and nucleofected into iPSC cells using the Lonza 4D-Nucleofector X unit (Buffer P3, Program CB-150). For each 20 μl nucleofection reaction, 0.2-0.5×106 iPSC were transfected with up to 4 μg of plasmid DNA. Post-nucleofection, iPSC were plated onto solubilized basement membrane matrix secreted by Engelbreth-Holm-Swarm (EHS) mouse sarcoma cells sold under the trademark […]®-coated wells containing feeder-free cell culture medium sold under the trademark MTESR1™ media with 10 μM Y-27632 plus other chemical inhibitors when noted. Later experiments included 50 μM zVAD-fmk (Bachem) for 1 day and 10 μM SB203580 (Biovision) for 4-5 days post transfection (see FIGS. 5, 6, 11, and 12). For FIG. 6 (ssODN transfection), 200 ng/ml recombinant B 18R (eBioscience), was also added to the culture for 5 days post transfection.
The following inhibitors were added to the hiPSC culture at the concentrations and time periods indicated in the Examples below. • 1. p53 or Bax inhibitors: cyclic pifithrin α (StemCell Technologies); pifithrin (Tocris); peptide V5, peptide control, iMAC1 and iMAC2 (EMD Millipore); N-acetyl cysteine and 4-hydroxy TEMPO (TEMPOL) (Sigma). • 2. […]

[1] = test system: human iPSC containing a doxycycline-inducible Cas9 nuclease; assay: Cas9 nuclease toxicity in doxycycline-inducible Cas9 hiPSC (decline of CFP+EGFP+ cells); format: cell-based; conditions: zVAD added
Source text: FIGS. 1A-C. Cas9 nuclease toxicity in human iPSC only occurs with sgRNAs that target the human genome. FIG. 1A. A human iPSC line containing a doxycycline-inducible Cas9 nuclease was infected with lentivirus that constitutively expresses CFP together with an sgRNA. Three days after infection, each culture was divided into several wells and treated with the indicated concentrations of doxycycline for up to 14 days. FIG. 1B. At the indicated time points, the percent of CFP^+ of live single cells was determined by flow cytometry. […] FIG. 1C. 14 days after doxycycline induction, iPSC infected with the Thy1 sgRNA were stained for expression of the Thy1 surface marker and analyzed by flow cytometry. The percent of Thy1-negative edited cells gated on the CFP^+ infected cells is shown for varying concentrations of doxycycline. Results are representative of three independent experiments.
FIGS. 2A-B. Nuclease-mediated toxicity in human iPSC can be rescued by overexpression of dominant negative p53 or anti-apoptotic Bcl-2 family members. FIG. 2A. […] At the indicated time points, the percent of CFP EGFP^+ iPSC was determined by flow cytometry. […]
FIG. 13. […] At the indicated time points, the percent of CFP^+EGFP^+ iPSC was determined by flow cytometry. […]

human iPSC [2] = format: cell-based
Procedure: FIGS. 10A-F. Effect of Caspase and p38 MAPK inhibitors on survival and gene targeting of human iPSC. FIG. 10A and FIG. 10B. Mouse Thy1 gene targeting scheme. Human iPSC were nucleofected with the mThy1 targeting vector, Cas9 nuclease, and Thy1 sgRNA expressing plasmid or pUC19 empty vector. Nucleofected cells were evenly divided and plated onto plain media (mTeSR1+10 μM Y-27632 ROCK inhibitor), or media supplemented with the indicated chemical inhibitor. For specific caspase inhibitors, the principal caspase they target is noted in parentheses. […] FIG. 10C. Two days after nucleofection, viable cells were counted. Error bars indicate s.e.m. of technical duplicates. Lines mark the count levels for nucleofected cells in plain media with or without sgRNA. FIG. 10D. Five days after transfection, cells were analyzed by flow cytometry for mThy1 and hThy1 expression. The percent of mThy1^+hThy1^− (bottom of each bar) and mThy1^+hThy1^+ (top of each bar) cells of live single cells is indicated. Lines mark the levels for cells in plain media. […] FIG. 10E. FACS plots of human iPSC transfected with the mThy1 targeting vector, Cas9 nuclease, and Thy1 Left and Right sgRNAs. Cells were subsequently cultured for 5 days in plain media±50 μM zVAD and ±10 μM SB203580. FIG. 10F. Human iPSC cultures were single cell FACS sorted into 96-well tissue culture plates containing a MEF feeder layer and hES media supplemented with SMC4 inhibitors±50 μM zVAD for eight days. Ten days after sorting, the number of surviving iPSC colonies was counted (from 190 cells sorted). PGP1 hiPSC lines created using retroviral vectors or non-integrating methods were both tested.
Pluripotency of iPSC cultures was verified by flow cytometry staining using anti-human Tra-1/60 PE (TRA-1-60, BD) and anti-human Oct3/4 eFluor 660 (EM92, eBioscience) with the fixation buffer sold under the trademark BD CYTOFIX™ and permeabilization buffer sold under the trademark PHOSFLOW™ Perm/Wash buffers. Human g-band karyotype analysis was done by Cell Line Genetics. Viable cell counts were measured with the cell analyzer sold under the trademark MUSE® Count & Viability Assay kit (EMD Millipore). Anti-human HLA-A2 APC (BB7.2) and anti-human HLA-BC PE (B1.23.2) were purchased from eBioscience. Human iPSC cultures were treated with 50 ng/ml recombinant interferon gamma (eBioscience) for 2 days prior to HLA staining.
as §1
The following inhibitors were added to the hiPSC culture at the concentrations and time periods indicated in the Examples below. • 1. p53 or Bax inhibitors: cyclic pifithrin α (StemCell Technologies); pifithrin (Tocris); peptide V5, peptide control, iMAC1 and iMAC2 (EMD Millipore); N-acetyl cysteine and 4-hydroxy TEMPO (TEMPOL) (Sigma). • 2.

human iPSC [3] = assay: mThy1 gene targeting in hiPSC co-transfected with DNA repair or viral inhibitor genes; format: cell-based; conditions: 0.5 μg plasmid overexpressing the DNA repair gene; 50 μM zVAD and 10 μM SB203580 post transfection (FIG. 9E)
Procedure: FIGS. 9A-G. Effects of chemical and genetic inhibitors on mThy1 gene targeting in hiPSC. FIG. 9A. Mouse Thy1 gene targeting scheme. Human iPSC were nucleofected with the mThy1 targeting vector system plasmids and analyzed by flow cytometry five days later. The percentages of mThy1^+hThy1^−, mThy1^+hThy1^+, and mThy1^−hThy1^− cells for each sample (gated on live single cells) are graphed. Lines mark the percentage values for the control sample. FIGS. 9B-9D. Human iPSC were nucleofected with: 2 μg mThy1 targeting vector; 0.5 μg Cas9 plasmid; and 1.5 μg of sgRNA plasmids. The sample was divided into multiple wells and cultured in plain media (mTeSR1+10 μM Y-27632 ROCK inhibitor) supplemented with the indicated chemical inhibitor for three days. 20 μM pifithrin α, 200 μM peptide V5 (VPMLK, SEQ ID NO:31), 200 μM peptide control (IPMIK, SEQ ID NO:32), 50 μM TEMPOL, or the indicated concentrations of SCR7 or L755507 were used. FIG. 9B, mThy1^+hThy1^− (bottom portion of each bar in each graph), mThy1^+hThy1^+ (top portion of each bar in each graph). FIG. 9C, mThy1^+hThy1^− (bottom portion of each bar in each graph), mThy1^+hThy1^+ (top portion of each bar in left and center graphs, middle portion of each bar in right graph), and mThy1^−hThy1^− (top portion of each bar in right graph). […]

## C[C@H]1CCC/C=C/[C@@H]2C[C@H](O)C[C@H]2[C@H](O)/C=C/C(=O)O1 [Brefeldin A]
hiPSC; PGP1 hiPSC, 0.1 μM, data not shown
  toxicity to hiPSC: toxic

## CC(=O)N[C@@H](CS)C(=O)O [N-acetyl cysteine]
hiPSC; 1-5 mM
  toxicity to hiPSC: toxicity

## CC(NC(=O)C(NC(=O)OCc1ccccc1)C(C)C)C(=O)NC(CC(=O)O)C(=O)CF (stereo not drawn) [zVAD] (Cbz-Val-Ala-Asp-CH2F; configuration not given here)
[1]
  doxycycline-induced Cas9 nuclease toxicity: did not affect
Human iPSC [2]; lower concentration, 25 μM
  anoikis rescue: did not show as much anoikis rescue
Human iPSC [2]; viable cells two days after nucleofection, sgRNA plasmid or pUC19 control
  rescue of hiPSC from cell death (anoikis) after nucleofection: rescued cells transfected with an sgRNA, and also those transfected with the pUC19 control

## BRCA1: principal HR mediator, overexpressed from plasmid
Human iPSC [3]
  mThy1 gene targeting efficiency: did not improve mThy1 gene targeting efficiency

## BRCA2: principal HR mediator, overexpressed from plasmid
Human iPSC [3]
  mThy1 gene targeting efficiency: did not improve mThy1 gene targeting efficiency
